Test results reported in US20260185169A1, “MOLECULAR SIGNATURES TO PREDICT LONG-TERM LIVER FIBROSIS PROGRESSION” (THE BOARD OF REGENTS OF THE UNIVERSITY OF TEXAS SYSTEM, priority 2022, published 2026).

System: FPS and molecular pathways
Experiment: Modulation of FPS and molecular pathways in hepatic transcriptome (RNA-Seq, CES/GSEI) in CENTAUR trial biopsies
Type: in vivo, human
Settings: for modulation of FPS genes: cenicriviroc arm
Excerpt: Archived formalin-fixed liver tissues from index biopsy were used for histological assessment in all patients (FIG. 1 and Table 1A-11) to confirm no to minimal fibrosis (METAVIR fibrosis stage F0 or F1). The PLS validation set 1 (and FPS derivation set 1) is a case-control series of 43 chronic hepatitis C patients from a prior cohort study consecutively diagnosed and followed at Johns Hopkins and Massachusetts General Hospital between 1998 and 2010. Twenty-five patients were co-infected with HIV and on anti-retroviral therapies. The patients were regularly followed up with ultrasound elastography at median interval of 1.1 (IQR: 0.6-2.0) years. Liver stiffness measurement >7.0 and >9.5 kPa were regarded as indication of F2 and F3 fibrosis, respectively. The PLS validation set 2 (and FPS derivation set 2) is a case-control series of 38 patients who consecutively underwent liver transplantation for HCV-related cirrhosis and protocol liver biopsies at year 1, 2, and 5 after transplantation (and additional biopsies as needed to evaluate graft rejection, which were excluded) at Baylor University between 2002 and 2007. Median number of biopsies was 8 (IQR: 6-9) per patient with median interval between serial biopsies of 8.6 (IQR: 0.3-12.6) months. […] The FPS derivation set 3 is a cross-sectional series of 31 NAFLD patients who underwent diagnostic liver biopsy at Hiroshima University between 2003 and 2015. The FPS derivation set 4 is a cross-sectional series of 309 NAFLD patients who underwent diagnostic liver biopsy (F0 or F1 fibrosis) at Massachusetts General Hospital between 2009 and 2016. […] The cases were defined as patients who had F-stage increase of one stage or more in the follow-up biopsy. The FPS validation set 2 includes 78 patients with fibrotic liver diseases from various etiologies, for which de-identified fresh liver tissues were available from standard-care hepatic resection for organotypic ex vivo tissue culture at University of Texas Southwestern and Mount Sinai. The FPS validation set 3 consists of NASH patients with F1-F3 fibrosis who underwent liver biopsy before and after 1-year treatment with cenicriviroc (n=9) or placebo (n=10) in the phase Ilb CENTAUR trial (NCT02217475). Decrease of one or more fibrosis stage was regarded as anti-fibrotic response. The serum surrogate FPS was assessed in archived de-identified serum samples from 79 patients with chronic liver diseases. The FPSec validation set is a cohort of 122 patients with compensated (Child-Pugh class A) cirrhosis patients with mixed etiologies enrolled at University of Michigan between 2004 and 2006 as reported in our previous study. Hepatic decompensation was defined as newly developed massive ascites, hepatic encephalopathy, bleeding from gastroesophageal varices, or liver transplantation. The study was approved by institutional review board at respective institutions with written informed consent or exemption for use of archived de-identified samples (protocol numbers: STU062018-058, STU072018-071, 2010P000220/PHS, HS13-00159).
Total RNA was isolated from fixed tissue sections by using High Pure RNA Paraffin kit (Roche), and assessed for quality by qRT-PCR of RPL13A. Total RNA from the PCLS tissues was isolated using RNeasy kit (Qiagen). RNA samples (100-200 ng) were subjected to the PLS/FPS assay implemented in the nCounter platform (NanoString), and transcriptome profiling of the CENTAUR trial samples was performed by RNA-Seq (TrueSeq RNA Access, Illumina). Expression of BCL2, COL1A1, and ACTA2 genes was measured by qRT-PCR (Table 3). Serum protein profiling was performed by using xMAP assay (Luminex). […]

[1] = Fibrosis not improved, NASH patients, Hallmark set, Cellular signaling
[2] = Fibrosis not improved, NASH patients, Hallmark set, Inflammatory response, immunity
[3] = Fibrosis not improved, NASH patients, Hallmark set, Metabolism, biosynthesis
[4] = Fibrosis not improved, NASH patients, Hallmark set, Pathogenic response
[5] = Fibrosis not improved, NASH patients, Hallmark set, Sex hormone signaling
[6] = Fibrosis not improved, NASH patients, Hallmark set, Stress response
[7] = Fibrosis not improved, NASH patients, Immune cell signature (GSE65136)
[8] = Fibrosis not improved, NASH patients, Nuclear receptor signaling (curated pathway members)
[9] = Fibrosis not improved, NASH patients, PPAR agonists on mouse primary hepatocytes (GSE27948)

CCCCOCCOc1ccc(-c2ccc3c(c2)/C=C(/C(=O)Nc2ccc([S@@+]([O-])Cc4cncn4CCC)cc2)CCCN3CC(C)C)cc1 [Cenicriviroc] was tested, and the “NES, Mitotic spindle gene set” value (Fibrosis not improved, NASH patients, Hallmark set, Cell cycle, DNA damage, response) was 0.82, the “NES, Apoptosis gene set” value (Fibrosis not improved, NASH patients, Hallmark set, Cell death) was 1.38 and the “NES, E2F targets gene set” value [1] was 1.88. The “NES, Hedgehog signaling gene set” value [1] was 1.05, the “NES, KRAS signaling gene set” value [1] was 1.63 and the “NES, Myc targets v1 gene set” value [1] was 2.19. The “NES, Myc targets v2 gene set” value [1] was 1.55, the “NES, Notch signaling gene set” value [1] was 0.84 and the “NES, PI3K/AKT/mTOR signaling gene set” value [1] was 1.43. The “NES, TGFβ signaling gene set” value [1] was −0.70, the “NES, TNFα signaling via NF-κB gene set” value [1] was 0.96 and the “NES, Wnt/β-catenin signaling gene set” value [1] was 0.87. The “NES, mTORC1 signaling gene set” value [1] was 1.93, the “NES, p53 pathway gene set” value [1] was 1.03 and the “NES, Allograft rejection gene set” value [2] was 2.25. For the same molecule, the “NES, IL2 STAT5 signaling gene set” value [2] was 1.70, the “NES, IL6 JAK STAT3 signaling gene set” value [2] was 1.82 and the “NES, Inflammatory response gene set” value [2] was 1.61. The “NES, Interferon-α response gene set” value [2] was 0.83, the “NES, Interferon-γ response gene set” value [2] was 1.39 and the “NES, Adipogenesis gene set” value [3] was −0.72. The “NES, Bile acid metabolism gene set” value [3] was −1.36, the “NES, Cholesterol homeostasis gene set” value [3] was 0.99 and the “NES, Coagulation gene set” value [3] was 1.33. For the same molecule, the “NES, Complement gene set” value [3] was 1.37, the “NES, Fatty acid metabolism gene set” value [3] was 0.73 and the “NES, Glycolysis gene set” value [3] was 1.43. For the same molecule, the “NES, Heme metabolism gene set” value [3] was −0.95, the “NES, Oxidative phosphorylation gene set” value [3] was 1.16 and the “NES, Peroxisome gene set” value [3] was −1.03. For the same molecule, the “NES, Protein secretion gene set” value [3] was 1.30, the “NES, Xenobiotic metabolism gene set” value [3] was 0.79 and the “NES, Angiogenesis gene set” value [4] was 1.64. For the same molecule, the “NES, Epithelial mesenchymal transition gene set” value [4] was 1.98, the “NES, Androgen response gene set” value [5] was 1.63 and the “NES, Estrogen response early gene set” value [5] was 1.07. For the same molecule, the “NES, Estrogen response late gene set” value [5] was 1.18, the “NES, Hypoxia gene set” value [6] was 1.67 and the “NES, Myogenesis gene set” value [6] was 1.73. For the same molecule, the “NES, Reactive oxygen species gene set” value [6] was 1.24, the “NES, UV response up gene set” value [6] was 1.24 and the “NES, Unfolded protein response gene set” value [6] was 1.41. For the same molecule, the “NES, B cell (naïve) gene set” value [7] was 1.70, the “NES, CD4 T cell (naïve) gene set” value [7] was 1.93 and the “NES, CD8 T cell gene set” value [7] was 2.31. The “NES, DC (activate) gene set” value [7] was 1.75, the “NES, Gamma delta T cell gene set” value [7] was 1.86 and the “NES, Macrophage (M1) gene set” value [7] was 1.70. The “NES, Macrophage (M2) gene set” value [7] was 1.74, the “NES, Mast cell (active) gene set” value [7] was 1.50 and the “NES, Mast cell (rest) gene set” value [7] was 1.71. For the same molecule, the “NES, Memory B cell gene set” value [7] was 1.67, the “NES, Memory T cell (rest) gene set” value [7] was 2.25 and the “NES, Monocyte gene set” value [7] was 1.50. The “NES, NK cell (rest) gene set” value [7] was 1.76, the “NES, Neutrophil gene set” value [7] was 1.42 and the “NES, Plasma cell gene set” value [7] was 1.46. For the same molecule, the “NES, Regulatory T cell gene set” value [7] was 1.99, the “NES, T follicular helper cell gene set” value [7] was 1.85 and the “NES, FXR pathway gene set” value [8] was −1.04. For the same molecule, the “NES, PPAR signaling gene set (first listed)” value [8] was −0.88, the “NES, PPAR signaling gene set (second listed)” value [8] was −1.00 and the “NES, PPARα pathway gene set (first listed)” value [8] was −0.62. The “NES, PPARα pathway gene set (second listed)” value [8] was −0.77, the “NES, RAR/RXR pathway gene set” value [8] was −1.49 and the “NES, RXR/VDR pathway gene set” value [8] was −1.71. For the same molecule, the “NES, GW7647 (PPARa agonist) gene set” value (Fibrosis not improved, NASH patients, PPAR agonist on human primary hepatocytes (GSE53399)) was −1.56, the “NES, GW501516 (PPARd agonist) gene set” value [9] was −0.92 and the “NES, ROSIGLITAZONE (PPARg agonist) gene set” value [9] was −1.19. The “NES, WY14643 (PPARa agonist) gene set” value [9] was 1.17, the “NES, PDGFRB target gene signature” value (Fibrosis not improved, NASH patients, iLINCS) was −0.79 and the “modulation of RXR, RAR and FXR pathways” value (both responders and non-responders) was “no obvious induction”. The “modulation of FPS genes” value (patients with histological fibrosis improvement) was “suppressed or unchanged”, the “modulation of FPS genes” value (patients with no fibrosis improvement) was “generally induced” and the “modulation of PPAR pathways” value (fibrosis responders after 1-year treatment, non-responders lack it) was “enrichment”. The “modulation of E2F signaling” value (fibrosis responders only) was “most strikingly suppressed” and the “PPAR α target gene signature (vs δ and γ agonist signatures)” value (transcriptional target gene signatures defined in mouse primary hepatocyte) was “dominantly induced”.
